Measured values published in article PMC4728427, “Mechanism of allosteric activation of TMEM16A/ANO1 channels by a commonly used chloride channel blocker” (British Journal of Pharmacology, 2016).
Read-outs that look alike come from different tables or passages of the source.

Key:
[1] = tested on: native CaCCs in rabbit pulmonary artery smooth muscle cells; details: cited from earlier work
[2] = molecular target: T1, Mouse TMEM16A (Mus musculus, UniProt Q8BHY3); test: Time-course of current block analysed by Langmuir formalism (kon, koff), 12.5 μM [Ca2+]i; assay type: cell-based; details: for Ki: read-out: Ki calculated as koff/kon
T1 construct: expressed in transfected cells; host or cells: HEK-293T
T1 sequence (Q8BHY3 1-960): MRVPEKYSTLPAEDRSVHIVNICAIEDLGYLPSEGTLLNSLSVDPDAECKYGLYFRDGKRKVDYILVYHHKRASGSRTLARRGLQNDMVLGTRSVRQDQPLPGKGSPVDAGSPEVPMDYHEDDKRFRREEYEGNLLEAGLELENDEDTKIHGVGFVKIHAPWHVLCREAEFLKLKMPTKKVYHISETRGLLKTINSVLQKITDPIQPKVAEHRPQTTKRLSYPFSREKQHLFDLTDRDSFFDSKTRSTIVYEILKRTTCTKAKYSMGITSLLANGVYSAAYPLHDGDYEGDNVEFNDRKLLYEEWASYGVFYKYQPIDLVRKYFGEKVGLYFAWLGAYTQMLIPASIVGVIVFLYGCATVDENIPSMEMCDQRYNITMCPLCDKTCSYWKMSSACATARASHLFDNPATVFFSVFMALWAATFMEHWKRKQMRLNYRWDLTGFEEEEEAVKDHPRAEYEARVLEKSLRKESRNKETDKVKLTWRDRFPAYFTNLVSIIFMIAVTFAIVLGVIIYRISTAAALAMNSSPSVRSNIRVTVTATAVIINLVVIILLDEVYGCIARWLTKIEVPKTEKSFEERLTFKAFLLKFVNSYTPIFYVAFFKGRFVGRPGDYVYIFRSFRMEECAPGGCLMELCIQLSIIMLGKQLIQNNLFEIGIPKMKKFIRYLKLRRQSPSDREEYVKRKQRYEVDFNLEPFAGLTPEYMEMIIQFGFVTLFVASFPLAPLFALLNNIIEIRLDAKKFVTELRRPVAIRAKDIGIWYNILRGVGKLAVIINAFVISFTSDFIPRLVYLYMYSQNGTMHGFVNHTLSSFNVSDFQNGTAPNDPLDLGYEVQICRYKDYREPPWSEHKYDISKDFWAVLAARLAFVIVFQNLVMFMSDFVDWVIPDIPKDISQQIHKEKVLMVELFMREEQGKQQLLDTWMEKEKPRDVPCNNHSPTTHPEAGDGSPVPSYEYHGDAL
Method: To investigate the precise mechanism by which extracellular A9C inhibits TMEM16A channels, macroscopic whole‐cell currents were recorded in the presence of 12.5 μM [Ca^2+]i and in response to 250 ms steps to various V m test pulse from a holding V m of −70 mV. The negative holding V m was used to prevent channel block before the test pulse was elicited. […] The time‐course of this decrease was described by a single‐exponential function characterized by a time constant τ B. The extent of the decrease in current was measured for various [A9C]ext and various V m test pulse and then plotted relative to the current measured in the absence of A9C (I 0) (Figure 3B). The γ values were close to 1 at each V m. In contrast, K i decreased as the V m was increased (Figure 3C). […] Thus, A9C appeared to block TMEM16A channels according to a Woodhull mechanism, consistent with a single A9C molecule blocking the channel pore.
The K i at various V m can also be estimated from analysis of the time‐course of current inhibition at various V m (see Supporting Information for details). K i estimated from this analysis were plotted against the V m in Figure 3C (open symbols). It is clear that K i estimated in this way is similar to the K i estimated from the Hill fit of the dose–response curves (filled symbols). […]
SUPPLEMENTARY INFORMATION
TMEM16A currents were measured with the whole-cell or inside-out configuration of
the patch-clamp technique using an Axon 200B amplifier (Molecular Devices, USA)
controlled with GE-pulse software (http://users.ge.ibf.cnr.it/pusch/programs-mik.htm).
Currents were filtered at 2-5 kHz and sampled at 10 kHz, unless stated otherwise.
Pipettes were prepared from borosilicate glass capillary tubes (Harvard Apparatus,
USA) using a Narishige PC-10 pipette puller (Narishige, Japan). Pipette tip diameter
yielded a resistance of 2.2 to 2.8 MΩ in the working solutions. The bath was grounded
through a 3 M KCl agar bridge connected to a Ag-AgCl reference electrode. In whole-
cell recordings, the series resistance was usually compensated by ≥70 % to achieve a
maximal effective series resistance generally lower than ~5 MΩ. To allow for
equilibration of the pipette solution with the cell interior, recordings started 5 min after
establishing the whole-cell configuration (Manoury, Tamuleviciute & Tammaro, 2010).
Experiments were conducted at 20-22 °C. The cell capacitance was assessed by
measuring the area beneath a capacitive transient elicited by a 10 mV step or via the
cell capacity compensation circuit of the amplifier.
Estimation of Ki at various Vm using the Langmuir formalism
Detailed kinetic analysis of TMEM16A channel activity is likely to require complex
models to account for the effects of Ca2+ and voltage on channel gating (Hartzell,
Putzier & Arreola, 2005). However, a simplified two-state kinetic scheme may be
applicable in conditions in which high [Ca2+]i is maintained to maximally activate the
TMEM16A channel. Under these conditions, and assuming that a molecule of A9C
binding into the pore of a TMEM16A channel results in the complete block of Cl- fluxes,
the Langmuir formalism applies:
Where O represents the conductive state and OB(A9C) is the A9C-blocked state. kon and
koff are the association and dissociation constant, respectively and Ki = koff/kon is the
apparent equilibrium dissociation constant.
The scheme (I) refers to the following differential equations: […]
(1 picture or pasted object on this page, not shown here)
Where O and OB(A9C) describe the probability of being open (unliganded) or blocked,
Thus, in the presence of a fixed [A9C]ext, when the Vm is stepped to a defined test-pulse
Where O∞ is the value of O(t) at the steady state and O(0) is the value of O(t) at the
beginning of the test pulse while τB is the time constant.
fitted with supplementary equation 3 and the resulting τB-1 plotted versus [A9C]ext
(Suppl. Fig.2). Supplementary equation 5 was used to fit the τB-1 obtained at a given Vm, […]

**Q.** For `O=C(O)c1c2ccccc2cc2ccccc12` [A9C, Anthracene‐9‐carboxylic acid], which “E rev of native CaCC currents” value ([1]; ref Piper and Greenwood (2003)) is on record?
**A.** did not change

**Q.** And the “native CaCC tail current increase” value ([1]; −80 mV, 500 μM A9C, ref Piper and Greenwood, 2003)?
**A.** ~ 3 fold

**Q.** And the koff ([2]; Vm 20 mV)?
**A.** 94 ± 5 s⁻¹

**Q.** What about the Ki ([2]; Vm 20 mV) of the same compound?
**A.** 168 µM

**Q.** What about the koff ([2]; Vm 40 mV) of the same compound?
**A.** 71 ± 9 s⁻¹

**Q.** What about the Ki ([2]; Vm 40 mV) of the same compound?
**A.** 104 µM

**Q.** What about the koff ([2]; Vm 60 mV) of the same compound?
**A.** 49 ± 13 s⁻¹

**Q.** And the Ki ([2]; Vm 60 mV)?
**A.** 62 µM

**Q.** What about the koff ([2]; Vm 80 mV) of the same compound?
**A.** 34 ± 9 s⁻¹

**Q.** And the Ki ([2]; Vm 80 mV)?
**A.** 38 µM

**Q.** And the koff ([2]; Vm 100 mV)?
**A.** 12 ± 25 s⁻¹

**Q.** What about the Ki ([2]; Vm 100 mV) of the same compound?
**A.** 12 µM

**Q.** What about the koff ([2]; Vm 120 mV) of the same compound?
**A.** 21 ± 17 s⁻¹

**Q.** And the Ki ([2]; Vm 120 mV)?
**A.** 19 µM
